Six cell lines from the supplement of paper PMC10307832 can be followed below.

Common to all, as to assay: relative viability (nuclei count vs DMSO), 5 days (fraction); higher = more cells survive
Compound in test [1]: COc1cc2/c(=N/c3ccc(Br)cc3F)nc[nH]c2cc1OCC1CCN(C)CC1 [Vandetanib] + NC(=O)Nc1cc(-c2cccc(F)c2)sc1C(=O)N[C@H]1CCCNC1 [AZD7762] (partner 0.2 µM)
In outline:
(§1)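 Relative viability is defined as nuclei in treated wells over nuclei in vehicle wells. Duplicate plates were run and medians reported. Lung cancer cell lines in 1536-well plates were dosed by pin tool one day after seeding, with one drug or with a fixed anchor-drug dose plus five library-drug doses (not always all listed) in √10 steps, and nuclei were counted after 5 days.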

Compound in test [2]: C#Cc1cccc(Nc2ncnc3cc(OC)c(OCCCCCCC(=O)NO)cc23)c1 [CUDC-101] + N=C(N)NC(=N)NCCc1ccccc1 [Phenformin] (partner 250 µM)
A digest of the protocol: as §1

Compound in test [3]: COc1cc2/c(=N/c3ccc(Br)cc3F)nc[nH]c2cc1OCC1CCN(C)CC1 [Vandetanib] + CS(=O)(=O)N1CCN(Cc2cc3nc(-c4cccc5[nH]ncc45)nc(N4CCOCC4)c3s2)CC1 [Pictilisib] (partner 1 µM)
In outline:
as §1

Compound in test [4]: C1=CC=C2C(=C1)N=C(S2)C(C#N)C3=NC(=NC=C3)NCCC4=CN=CC=C4 + O=C(CCCCCCC(=O)Nc1ccccc1)NO [Vorinostat] (partner 1 µM)
In outline: as §1

Consider NCI-H1975, for which the relative viability came out at 0.701 in test [1] (first compound 0.02 µM); 0.663 in test [1] (first compound 0.06325 µM); 0.645 in test [1] (first compound 0.2 µM); 0.687 in test [1] (first compound 0.6325 µM); 0.617 in test [1] (first compound 2 µM); 0.415 in test [2] (first compound 0.01 µM). Further, the relative viability in test [2] (first compound 0.03162 µM) amounted to 0.401; in test [2] (first compound 0.1 µM), 0.416; in test [2] (first compound 0.3162 µM) it was 0.425; in test [2] (first compound 1 µM), 0.378; in test [3] (first compound 0.02 µM), 0.285; in test [3] (first compound 0.06325 µM), 0.26. Also, the relative viability in test [3] (first compound 0.2 µM) worked out at 0.296; in test [3] (first compound 0.6325 µM), 0.27; in test [3] (first compound 2 µM), 0.301; in test [4] (first compound 0.005 µM), 0.712; in test [4] (first compound 0.01581 µM), 0.743; in test [4] (first compound 0.05 µM), 0.747. Besides, the relative viability was 0.834 in test [4] (first compound 0.1581 µM) and 0.571 in test [4] (first compound 0.5 µM).

On to NCI-H1993, for which the relative viability in test [1] (first compound 0.02 µM) was 0.737; in test [1] (first compound 0.06325 µM), 0.74; in test [1] (first compound 0.2 µM), 0.861; in test [1] (first compound 0.6325 µM) it was 0.78; in test [1] (first compound 2 µM), 0.555; in test [2] (first compound 0.01 µM), 0.491. Moreover, the relative viability in test [2] (first compound 0.03162 µM) turned out to be 0.523; in test [2] (first compound 0.1 µM), 0.569; in test [2] (first compound 0.3162 µM), 0.535; in test [2] (first compound 1 µM) it was 0.603; in test [3] (first compound 0.02 µM), 0.832; in test [3] (first compound 0.06325 µM) it was 0.727. Also, the relative viability is 0.64 in test [3] (first compound 0.2 µM); 0.85 in test [3] (first compound 0.6325 µM); 0.723 in test [3] (first compound 2 µM); 0.66 in test [4] (first compound 0.005 µM); 0.717 in test [4] (first compound 0.01581 µM); 0.638 in test [4] (first compound 0.05 µM). In addition, the values for the relative viability in test [4] (first compound 0.1581 µM) and in test [4] (first compound 0.5 µM) were 0.837 and 0.501, respectively.

On to NCI-H2085, for which the relative viability in test [1] (first compound 0.02 µM) is 0.941; in test [1] (first compound 0.06325 µM), 0.944; in test [1] (first compound 0.2 µM) it was 0.951; in test [1] (first compound 0.6325 µM) it was 0.857; in test [1] (first compound 2 µM), 0.946; in test [2] (first compound 0.01 µM) it was 0.654. The relative viability in test [2] (first compound 0.03162 µM) is 0.679; in test [2] (first compound 0.1 µM) it was 0.763; in test [2] (first compound 0.3162 µM), 0.724; in test [2] (first compound 1 µM), 0.593; in test [3] (first compound 0.02 µM), 0.428; in test [3] (first compound 0.06325 µM) it was 0.421. Also, the relative viability in test [3] (first compound 0.2 µM) is 0.398; in test [3] (first compound 0.6325 µM) it was 0.363; in test [3] (first compound 2 µM), 0.513; in test [4] (first compound 0.005 µM), 0.726; in test [4] (first compound 0.01581 µM) it was 0.737; in test [4] (first compound 0.05 µM), 0.781. Also, the relative viability is 0.826 in test [4] (first compound 0.1581 µM) and 0.903 in test [4] (first compound 0.5 µM).

Consider NCI-H2087, for which the relative viability was determined as 1.38 in test [1] (first compound 0.02 µM); 1.23 in test [1] (first compound 0.06325 µM); 1.54 in test [1] (first compound 0.2 µM); 1.4 in test [1] (first compound 0.6325 µM); 1.49 in test [1] (first compound 2 µM); 0.403 in test [2] (first compound 0.01 µM). Besides, the relative viability was 0.465 in test [2] (first compound 0.03162 µM); 0.439 in test [2] (first compound 0.1 µM); 0.413 in test [2] (first compound 0.3162 µM); 0.316 in test [2] (first compound 1 µM); 1 in test [3] (first compound 0.02 µM); 0.694 in test [3] (first compound 0.06325 µM). In addition, the relative viability turned out to be 0.922 in test [3] (first compound 0.2 µM); 0.935 in test [3] (first compound 0.6325 µM); 0.964 in test [3] (first compound 2 µM); 0.338 in test [4] (first compound 0.005 µM); 0.666 in test [4] (first compound 0.01581 µM); 0.353 in test [4] (first compound 0.05 µM). Also, the relative viability worked out at 1 in test [4] (first compound 0.1581 µM) and 0.435 in test [4] (first compound 0.5 µM).

Consider NCI-H2126, for which the relative viability came out at 1.03 in test [1] (first compound 0.02 µM); 0.938 in test [1] (first compound 0.06325 µM); 1.01 in test [1] (first compound 0.2 µM); 0.971 in test [1] (first compound 0.6325 µM); 1 in test [1] (first compound 2 µM); 0.556 in test [2] (first compound 0.01 µM). Also, the relative viability is 0.532 in test [2] (first compound 0.03162 µM); 0.517 in test [2] (first compound 0.1 µM); 0.52 in test [2] (first compound 0.3162 µM); 0.403 in test [2] (first compound 1 µM); 0.461 in test [3] (first compound 0.02 µM); 0.46 in test [3] (first compound 0.06325 µM). In addition, the relative viability is 0.468 in test [3] (first compound 0.2 µM); 0.418 in test [3] (first compound 0.6325 µM); 0.481 in test [3] (first compound 2 µM); 0.637 in test [4] (first compound 0.005 µM); 0.75 in test [4] (first compound 0.01581 µM); 0.701 in test [4] (first compound 0.05 µM). Moreover, the relative viability in test [4] (first compound 0.1581 µM) is 0.855; in test [4] (first compound 0.5 µM), 0.647.

Consider NCI-H2170, for which the relative viability in test [1] (first compound 0.02 µM) turned out to be 0.822; in test [1] (first compound 0.06325 µM), 0.8; in test [1] (first compound 0.2 µM) it was 0.893; in test [1] (first compound 0.6325 µM), 0.781; in test [1] (first compound 2 µM), 0.835; in test [2] (first compound 0.01 µM) it was 0.407. Moreover, the relative viability in test [2] (first compound 0.03162 µM) is 0.377; in test [2] (first compound 0.1 µM), 0.459; in test [2] (first compound 0.3162 µM), 0.439; in test [2] (first compound 1 µM), 0.375; in test [3] (first compound 0.02 µM), 0.328; in test [3] (first compound 0.06325 µM), 0.288. The relative viability in test [3] (first compound 0.2 µM) came to 0.267; in test [3] (first compound 0.6325 µM), 0.28; in test [3] (first compound 2 µM), 0.31; in test [4] (first compound 0.005 µM), 0.756; in test [4] (first compound 0.01581 µM), 0.86; in test [4] (first compound 0.05 µM), 0.777. For the same cell line, the relative viability was 0.887 in test [4] (first compound 0.1581 µM) and 0.877 in test [4] (first compound 0.5 µM).
